{"source": "ChEMBL document CHEMBL3044753", "about": "“Polyamines May Modulate Both G Protein-Coupled Receptors and G Proteins” (Med Chem Res, 2004)", "key": {"Left cardiac atrium [1]": {"system": "Left cardiac atrium", "experiment": "Negative ionotropic activity in electrically-paced Cavia porcellus (guinea pig) left atrium measured after 60 min by isometric transducer analysis in presence of benextramine/4-DAMP mustard", "type": "functional, tissue-based", "settings": "1 h"}, "Right cardiac atrium [2]": {"system": "Right cardiac atrium", "experiment": "Negative […] activity in electrically-paced Cavia porcellus (guinea pig) right atrium assessed as effect on force measured after 60 min by isometric transducer analysis in absence of benextramine/4-DAMP mustard", "type": "functional, tissue-based", "settings": "1 h"}, "Left cardiac atrium [3]": {"system": "Left cardiac atrium", "experiment": "Negative ionotropic activity in electrically-paced Cavia porcellus (guinea pig) left atrium measured after 60 min by isometric transducer analysis in presence of benzalkonium", "type": "functional, tissue-based"}, "[4]": {"target": "T1, Muscarinic acetylcholine receptor M1 (Homo sapiens) (UniProt P11229)", "T1 sequence (whole entry)": "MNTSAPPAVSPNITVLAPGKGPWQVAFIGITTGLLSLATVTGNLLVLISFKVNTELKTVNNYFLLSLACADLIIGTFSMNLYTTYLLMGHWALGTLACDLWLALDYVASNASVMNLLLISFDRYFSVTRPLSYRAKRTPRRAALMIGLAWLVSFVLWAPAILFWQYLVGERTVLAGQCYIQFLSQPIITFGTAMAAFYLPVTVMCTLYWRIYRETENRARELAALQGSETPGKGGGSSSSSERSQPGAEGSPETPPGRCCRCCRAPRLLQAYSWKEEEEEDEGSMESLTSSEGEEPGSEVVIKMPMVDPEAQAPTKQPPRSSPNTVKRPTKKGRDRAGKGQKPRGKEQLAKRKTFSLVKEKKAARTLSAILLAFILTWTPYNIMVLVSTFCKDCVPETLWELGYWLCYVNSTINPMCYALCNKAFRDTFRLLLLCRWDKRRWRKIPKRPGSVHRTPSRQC", "experiment": "Binding affinity to Homo sapiens (human) recombinant muscarinic M1 receptor expressed in CHO cells assessed as [35S]GTPgammaS binding", "type": "functional, cell-based"}, "Right cardiac atrium [5]": {"system": "Right cardiac atrium", "experiment": "Negative […] activity in electrically-paced Cavia porcellus (guinea pig) right atrium assessed as effect on force measured after 60 min by isometric transducer analysis in absence of benextramine/4-DAMP mustard relative to N-dodecyl lysine amide", "type": "functional"}, "Left cardiac atrium [6]": {"system": "Left cardiac atrium", "experiment": "Negative ionotropic activity in electrically-paced Cavia porcellus (guinea pig) left atrium measured after 60 min by isometric transducer analysis in presence of DPCPX", "type": "functional, tissue-based"}, "[7]": {"target": "T2, Muscarinic acetylcholine receptor M2 (Homo sapiens) (UniProt P08172)", "T2 sequence (whole entry)": "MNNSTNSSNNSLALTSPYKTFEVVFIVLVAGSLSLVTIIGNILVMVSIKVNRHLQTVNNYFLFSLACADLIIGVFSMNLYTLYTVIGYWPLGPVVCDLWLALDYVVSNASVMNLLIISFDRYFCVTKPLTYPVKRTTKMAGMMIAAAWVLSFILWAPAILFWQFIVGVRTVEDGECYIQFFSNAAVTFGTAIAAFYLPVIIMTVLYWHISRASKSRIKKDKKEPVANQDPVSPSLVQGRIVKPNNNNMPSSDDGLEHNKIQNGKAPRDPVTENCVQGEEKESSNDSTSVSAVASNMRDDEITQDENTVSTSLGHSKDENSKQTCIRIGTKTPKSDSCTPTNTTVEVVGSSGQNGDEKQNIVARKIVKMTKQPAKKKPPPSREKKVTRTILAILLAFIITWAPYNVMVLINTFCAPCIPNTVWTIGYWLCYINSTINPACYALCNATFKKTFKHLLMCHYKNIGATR", "experiment": "Allosteric modulation of Homo sapiens (human) recombinant muscarinic M2 receptor expressed in CHO cells assessed as inhibition of N-[3H]methylscopalamine dissociation at 20 uM incubated at 1 hr post N-[3H]methylscopalamine addition measured after 5 min by filter binding assay", "type": "cell-based"}, "Right cardiac atrium [8]": {"system": "Right cardiac atrium", "experiment": "Reversible negative ionotropic activity in electrically-paced Cavia porcellus (guinea pig) right atrium incubated for 30 min followed by compound-washout measured after 3 hr by isometric transducer analysis", "type": "functional, tissue-based"}, "[9]": {"target": "Muscarinic acetylcholine receptor M3 (Homo sapiens) (UniProt P20309)", "sequence (P20309 whole entry, looked up)": "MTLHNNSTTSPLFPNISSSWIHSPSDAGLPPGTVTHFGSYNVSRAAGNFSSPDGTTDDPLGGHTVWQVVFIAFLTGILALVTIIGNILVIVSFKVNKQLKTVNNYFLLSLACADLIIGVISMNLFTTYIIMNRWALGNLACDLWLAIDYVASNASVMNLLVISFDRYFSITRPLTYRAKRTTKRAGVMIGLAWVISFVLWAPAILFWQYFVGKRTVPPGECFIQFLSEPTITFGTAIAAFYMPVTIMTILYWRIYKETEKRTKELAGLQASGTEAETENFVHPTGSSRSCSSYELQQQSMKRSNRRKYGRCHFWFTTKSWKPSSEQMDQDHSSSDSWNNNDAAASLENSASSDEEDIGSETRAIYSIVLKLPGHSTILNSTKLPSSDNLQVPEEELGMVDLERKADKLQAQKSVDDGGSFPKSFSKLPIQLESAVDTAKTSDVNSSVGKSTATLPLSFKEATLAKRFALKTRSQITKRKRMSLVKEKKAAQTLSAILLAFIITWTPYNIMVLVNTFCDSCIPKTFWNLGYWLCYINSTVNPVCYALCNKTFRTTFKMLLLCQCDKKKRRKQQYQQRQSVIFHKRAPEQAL", "experiment": "Binding affinity to Homo sapiens (human) recombinant muscarinic M3 receptor expressed in CHO cells assessed as [35S]GTPgammaS binding", "type": "functional, cell-based"}, "Left cardiac atrium [10]": {"system": "Left cardiac atrium", "experiment": "Negative ionotropic activity in electrically-paced Cavia porcellus (guinea pig) left atrium measured after 60 min by isometric transducer analysis in absence of benextramine/4-DAMP mustard", "type": "functional, tissue-based", "settings": "1 h"}, "Left cardiac atrium [11]": {"system": "Left cardiac atrium", "experiment": "Negative ionotropic activity in electrically-paced Cavia porcellus (guinea pig) left atrium measured after 60 min by isometric transducer analysis in presence of benextramine/4-DAMP mustard relative to N-dodecyl lysine amide", "type": "functional"}, "Right cardiac atrium [12]": {"system": "Right cardiac atrium", "experiment": "Negative […] activity in electrically-paced Cavia porcellus (guinea pig) right atrium assessed as effect on force measured after 60 min by isometric transducer analysis in presence of benextramine/4-DAMP mustard", "type": "functional, tissue-based", "settings": "1 h"}, "[13]": {"target": "T1, Muscarinic acetylcholine receptor M1 (Homo sapiens)", "experiment": "Allosteric modulation of Homo sapiens (human) recombinant muscarinic M1 receptor expressed in CHO cells assessed as inhibition of carbachol-induced [35S]GTPgammaS binding", "type": "functional, cell-based"}, "[14]": {"target": "T3, Muscarinic acetylcholine receptor M5 (Homo sapiens) (UniProt P08912)", "T3 sequence (whole entry)": "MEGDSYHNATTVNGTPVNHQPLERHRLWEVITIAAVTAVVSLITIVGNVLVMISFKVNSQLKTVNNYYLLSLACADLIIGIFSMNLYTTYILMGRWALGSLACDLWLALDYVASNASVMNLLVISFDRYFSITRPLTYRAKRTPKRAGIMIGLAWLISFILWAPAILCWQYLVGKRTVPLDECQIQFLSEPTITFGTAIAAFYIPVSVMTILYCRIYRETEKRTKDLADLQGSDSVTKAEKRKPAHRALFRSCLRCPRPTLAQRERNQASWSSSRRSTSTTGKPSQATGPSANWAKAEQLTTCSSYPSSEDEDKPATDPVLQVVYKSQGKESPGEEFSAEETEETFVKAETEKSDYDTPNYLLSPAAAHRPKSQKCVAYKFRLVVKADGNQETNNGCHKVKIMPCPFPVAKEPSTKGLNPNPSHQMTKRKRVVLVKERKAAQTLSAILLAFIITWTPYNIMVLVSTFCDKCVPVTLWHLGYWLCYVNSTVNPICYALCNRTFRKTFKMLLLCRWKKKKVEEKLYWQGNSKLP", "experiment": "Allosteric modulation of Homo sapiens (human) recombinant muscarinic M5 receptor expressed in CHO cells assessed as inhibition of carbachol-induced [35S]GTPgammaS binding", "type": "functional, cell-based"}, "Left cardiac atrium [15]": {"system": "Left cardiac atrium", "experiment": "Negative ionotropic activity in electrically-paced Cavia porcellus (guinea pig) left atrium measured after 60 min by isometric transducer analysis in presence of prazosin", "type": "functional, tissue-based"}, "Right cardiac atrium [16]": {"system": "Right cardiac atrium", "experiment": "Negative ionotropic activity in electrically-paced Cavia porcellus (guinea pig) right atrium measured after 60 min by isometric transducer analysis in presence of benextramine", "type": "functional, tissue-based"}, "Right cardiac atrium [17]": {"system": "Right cardiac atrium", "experiment": "Negative ionotropic activity in electrically-paced Cavia porcellus (guinea pig) right atrium measured after 60 min by isometric transducer analysis in presence of bupranolol", "type": "functional, tissue-based"}, "[18]": {"target": "T2, Muscarinic acetylcholine receptor M2 (Homo sapiens)", "experiment": "Binding affinity to Homo sapiens (human) recombinant muscarinic M2 receptor expressed in CHO cells assessed as [35S]GTPgammaS binding", "type": "functional, cell-based"}, "Left cardiac atrium [19]": {"system": "Left cardiac atrium", "experiment": "Negative ionotropic activity in electrically-paced Cavia porcellus (guinea pig) left atrium measured after 60 min by isometric transducer analysis in presence of AM 630", "type": "functional, tissue-based"}, "[20]": {"target": "T2, Muscarinic acetylcholine receptor M2 (Homo sapiens)", "experiment": "Allosteric modulation of Homo sapiens (human) recombinant muscarinic M2 receptor expressed in CHO cells assessed as inhibition of N-[3H]methylscopalamine dissociation incubated at 1 hr post N-[3H]methylscopalamine addition measured after 5 min by filter binding assay", "type": "cell-based"}}, "note": "Calls of active or inactive are those of the source. The rule behind the calls is not given here.", "data": [{"smiles": "COc1ccccc1CN1CCC(C2CCN(C(=O)CCCCCCC(=O)N3CCC(C4CCN(Cc5ccccc5OC)CC4)CC3)CC2)CC1", "note": "[PIPERTRAMINE AMIDE]", "values": [{"measurement": "EC50", "setting": "Left cardiac atrium [1]", "value": 0.589, "unit": "nM"}, {"measurement": "EC50", "setting": "Right cardiac atrium [2]", "value": 3.89, "unit": "nM"}, {"measurement": "Activity", "setting": "Left cardiac atrium [3]", "value": "inactive"}, {"measurement": "Activity", "setting": "[4]", "value": "inactive"}, {"measurement": "Efficacy", "setting": "Right cardiac atrium [5]", "value": 78, "unit": "%"}, {"measurement": "Activity", "setting": "Left cardiac atrium [6]", "value": "Active"}, {"measurement": "inhibition", "setting": "[7]", "value": "Active"}, {"measurement": "Activity", "setting": "Right cardiac atrium [8]", "value": "inactive"}, {"measurement": "Activity", "setting": "[9]", "value": "inactive"}, {"measurement": "EC50", "setting": "Left cardiac atrium [10]", "value": 3.09, "unit": "nM"}, {"measurement": "Efficacy", "setting": "Left cardiac atrium [11]", "value": 85, "unit": "%"}, {"measurement": "EC50", "setting": "Right cardiac atrium [12]", "value": 3.16, "unit": "nM"}, {"measurement": "Activity", "setting": "[13]", "value": "Active"}, {"measurement": "Activity", "setting": "[14]", "value": "Active"}, {"measurement": "Activity", "setting": "Left cardiac atrium [15]", "value": "Active"}, {"measurement": "Activity", "setting": "Right cardiac atrium [16]", "value": "Active"}, {"measurement": "Activity", "setting": "Right cardiac atrium [17]", "value": "Active"}, {"measurement": "Activity", "setting": "[18]", "value": "inactive"}, {"measurement": "Activity", "setting": "Left cardiac atrium [19]", "value": "Active"}, {"measurement": "INH", "setting": "[20]", "value": 1.71, "unit": "µM"}]}, {"smiles": "COc1ccccc1CN1CCC(C2CCN(CCCCCCCCN3CCC(C4CCN(Cc5ccccc5OC)CC4)CC3)CC2)CC1", "note": "[PIPERTRAMINE]", "values": [{"measurement": "EC50", "setting": "Left cardiac atrium [1]", "value": 0.331, "unit": "nM"}, {"measurement": "EC50", "setting": "Right cardiac atrium [2]", "value": 0.275, "unit": "nM"}, {"measurement": "Activity", "setting": "Left cardiac atrium [3]", "value": "inactive"}, {"measurement": "Activity", "setting": "[4]", "value": "inactive"}, {"measurement": "Efficacy", "setting": "Right cardiac atrium [5]", "value": 71, "unit": "%"}, {"measurement": "Activity", "setting": "Left cardiac atrium [6]", "value": "Active"}, {"measurement": "inhibition", "setting": "[7]", "value": "Active"}, {"measurement": "Activity", "setting": "Right cardiac atrium [8]", "value": "inactive"}, {"measurement": "Activity", "setting": "[9]", "value": "inactive"}, {"measurement": "EC50", "setting": "Left cardiac atrium [10]", "value": 0.2, "unit": "nM"}, {"measurement": "Efficacy", "setting": "Left cardiac atrium [11]", "value": 96, "unit": "%"}, {"measurement": "EC50", "setting": "Right cardiac atrium [12]", "value": 0.263, "unit": "nM"}, {"measurement": "Activity", "setting": "[13]", "value": "Active"}, {"measurement": "Activity", "setting": "[14]", "value": "Active"}, {"measurement": "Activity", "setting": "Left cardiac atrium [15]", "value": "Active"}, {"measurement": "Activity", "setting": "Right cardiac atrium [16]", "value": "Active"}, {"measurement": "Activity", "setting": "Right cardiac atrium [17]", "value": "Active"}, {"measurement": "Activity", "setting": "[18]", "value": "inactive"}, {"measurement": "Activity", "setting": "Left cardiac atrium [19]", "value": "Active"}, {"measurement": "INH", "setting": "[20]", "value": 1.57, "unit": "µM"}]}]}
